Source: patent US9066887B2, “Transdermal therapeutic system having urea components” (LTS LOHMANN THERAPIE-SYSTEME AG, priority 2008, dated 2015)

Assay: In vitro permeation from TTS in Franz diffusion cell
Conditions: TTS with 10% (m/m) active ingredient and 20% (m/m) solid urea of particle size >100 μm (B) versus TTS containing no urea (A); acrylate adhesive matrix; cow udder, 32° C., 72 h
Description: A commercial acrylate adhesive was dissolved in a solvent. […] This acrylate adhesive composition was cast to form a reservoir layer 500 μm in thickness, and the solvent was evaporated, producing a matrix basis weight of 100 g/m^2. A number of experimental TTS were punched from this active ingredient laminate, and were then used for experiments in vitro.
The Franz diffusion cell is composed of a donor compartment and an acceptor compartment, separated by a membrane (cow udder). The donor compartment contains the TTS, while, for the acceptor compartment, a physiological buffer was used, conditioned to a temperature of 32° C. Samples were taken from the acceptor compartment over a period of 72 h, and were analyzed by HPLC for the permeated amount of active ingredient.

increase in active ingredient permeation through the skin (cumulative permeated amount), factor | Compound
9 | c1ccc(Cn2c(N3CCNCC3)nc3ccccc32)cc1 [lerisetron]
4 | Clc1ccc2nsnc2c1NC1=NCCN1 [tizanidine]

Compound | increase in active ingredient permeation through the skin (cumulative permeated amount), factor
Cn1c(=O)c2c(ncn2C)n(C)c1=O [caffeine] | 8
